Assay results from article PMC8950868, “Identifying Human PTP1B Enzyme Inhibitors from Marine Natural Products: Perspectives for Developing of Novel Insulin-Mimetic Drugs” (Pharmaceuticals, 2022).

Experiments:
human recombinant AR = biological target: T1, human recombinant AR (Homo sapiens, UniProt P15121); assay: AR enzymatic assay (NADPH oxidation, L-idose substrate); format: biochemical; settings: for remaining activity at 71 µM: 71 µM (maximal concentration used), read-out: % residual activity of human AR
T1 construct: made in house
Experimental: The human recombinant AR, purified to electrophoretic homogeneity as described, was used as target enzyme. AR activity was determined at 37 °C as previously described by evaluating the decrease in absorbance at 340 nm linked to NADPH oxidation using a Biochrom Libra S60 spectrophotometer. The standard assay mixture contained 0.25 M sodium phosphate buffer pH 6.8, 0.18 mM NADPH, 0.42 M ammonium sulfate, 0.5 mM EDTA and 4.7 mM D,L-glyceraldehyde. One unit of enzyme activity is the amount that catalyses the conversion of 1 µmol of substrate/min in the above assay conditions. For AR inhibition studies, 0.8 mM L-idose was used as substrate in the conditions described above, in the presence of 10 mU of enzyme and of a final concentration of DMSO of 0.7% (v/v).

[1] = biological target: T2, human recombinant PTP1B (1–302) (Homo sapiens, UniProt P18031); assay: PTP1B enzymatic assay (p-NPP hydrolysis; preliminary screening and IC50); format: biochemical; settings: for Effect on PTP1B activity in preliminary screening: 20 µM of each compound, 30 min; for IC50: 2.5 mM p-NPP, pH 7.0, 37 °C, mean ± SD (n = 3), read-out: IC50 values determined on PTP1B
T2 construct: human recombinant PTP1B (1–302)
T2 sequence (P18031 1-302): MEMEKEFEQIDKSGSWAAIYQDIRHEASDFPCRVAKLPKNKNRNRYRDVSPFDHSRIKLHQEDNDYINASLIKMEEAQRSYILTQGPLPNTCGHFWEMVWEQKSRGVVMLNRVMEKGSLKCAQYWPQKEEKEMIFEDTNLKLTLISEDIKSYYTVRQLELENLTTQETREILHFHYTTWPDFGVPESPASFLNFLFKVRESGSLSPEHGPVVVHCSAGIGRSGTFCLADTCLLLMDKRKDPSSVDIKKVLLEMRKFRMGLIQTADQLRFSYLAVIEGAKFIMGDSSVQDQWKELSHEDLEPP
Experimental: We performed enzymatic assays as previously described. For each assay, an aliquot of human recombinant PTP1B (1–302) was added in the assay buffer (0.075 M β,β-dimethylglutarate pH 7.0 containing 1 mM EDTA, 0.1 mM DTT and a p-nitrophenylphosphate (p-NPP) (Chemcruz, Santa Cruz Biotechnology (Santa Cruz, CA, USA)). The reactions were performed at 37 °C in a final volume of 1 mL. After adequate time (30 min) of incubation, the reactions were stopped adding 2 mL of 0.1 M KOH in each sample. The released amount of p-nitrophenol, product of the reaction, was determined by measuring the absorbance at 400 nm in a 1 cm pathlength cuvette.
The IC50 value of compounds against PTP1B was determined by measuring the hydrolysis rate of the enzyme in the presence of a fixed substrate concentration (2.5 mM p-NPP) and increasing inhibitor concentrations (generally 14–16 different concentrations). Each test was carried out in triplicate. Experimental data were normalized respect to control samples and then fitted using a non-linear fitting software, using the following equation: Vi/V0=Max−Min/1+x/IC50^slope+Min where the Vi/V0 value represents the relative activity calculated in presence of each inhibitor concentration; the maximum and minimum value of the activity are represented by “Max” and “Min”, respectively; “x” is the concentration of the inhibitor; IC50 is the inhibitor concentration able to decrease the enzymatic activity up to 50%; “slope” represents the slope of the curve in the transition zone.
Figure 2 Preliminary screening assay on PTP1B. All assays were started by diluting an aliquot of PTP1B in the assay solution containing substrate alone (control test) or substrate and an aliquot of each compound (20 µM, final concentration). After 30 min, the reactions were stopped by adding a concentrated KOH solution. The enzyme activity was determined by measuring the amount of p-nitrophenol that was released in each sample using a spectrophotometer. Data obtained were normalized respect to control sample. […] Statistical analysis was carried out using one way ANOVA followed by Tukey’s HSD test for pairwise comparisons. Statistics have been drawn on raw data and compare samples to control (Ctr). * p < 0.05; ** p < 0.01.
Figure 3 Determination of the IC50 values with compounds 3, 8a, 8b, 9a and 9b. An aliquot of PTP1B enzyme was diluted in the presence of increasing concentration of the compounds. The activity of PTP1B was determined by measuring the absorbance of the sample at 400 nm, using a spectrophotometer. Data obtained were normalized respect to the control sample and analysed using a non-linear fitting software.

GST–PTP1B fusion protein = tested on: GST–PTP1B fusion protein; set-up: method as in PMID 27064611; settings: different pH value, read-out: IC50 on PTP1B previously determined; cited from earlier work
C2C12 cells = assay: Glucose uptake assay (2-NBDG, flow cytometry); format: cell-based, murine; settings: 20 µM compound alone, 30 min, then 2-NBDG 3 h
Experimental: To evaluate glucose uptake, C2C12 cells were grown until 80% confluence and then incubated in starvation medium for 24 h. After this time, cells were stimulated with 10 nM insulin (Humalog Lispro, Eli Lilly), 20 µM compound 3 or 3-insulin combination for 30 min and then incubated in the presence of 40 µM of 2-NBDG (Invitrogen) for 3 h. Then, cells were washed with PBS, tripsinized, pelleted by centrifugation (1000× g for 5 min), then suspended in 500 µL of PBS. The amount of 2-NBDG uploaded by cells was determined analysing cells by using a flow cytometer apparatus (FACSCanto II, BD Biosciences, San Jose, CA, USA). For each sample 1 × 10^4 events were acquired. Data obtained were then analysed with FlowJo software. Cells autofluorescence values were determined before sample analysis and subtracted to each sample.
Figure 13 Glucose uptake assay. C2C12 cells were treated with 10 nM insulin, 20 µM compound 3 or 3-insulin combination and then incubated in the presence of 2-NBDG for 3 h. After that, the glucose uptake was analysed by flow cytometry analysis. Each test was carried out in quadruplicate. For each test, 10,000 events at least were analysed. (A), quantification of the mean fluorescence values of C2C12 cells. Data represents the mean value ± SD (n = 4). […] (B), representative cell fluorescence distribution obtained by analysing data with the FlowJo software. […]

| Compound | remaining activity at 71 µM (human recombinant AR) | Effect on PTP1B activity in preliminary screening [1] | IC50 [1] | IC50 (GST–PTP1B fusion protein) | Glucose uptake (2-NBDG) (C2C12 cells) | AR inhibition (in words) (human recombinant AR) |
| --- | --- | --- | --- | --- | --- | --- |
| CCCCC[C@@H](OP(=O)(O)O)[C@@H](O)CC[C@H](CCCC)OC(C)=O (relative stereo) [Compound 8a] | 87 ± 2% | reducing PTP1B activity | 16 ± 2 µM | – | – | – |
| CCCCCCCCCCCCCCC(OP(=O)(O)O)C(O)CCCO (stereo not drawn) [Compound 3] | 82 ± 3% | reducing PTP1B activity | 6.7 ± 3.3 µM | 24 ± 7 µM | incorporated more glucose than insulin-stimulated C2C12 cells | ineffective |
